# Experiments:
# arginase 1, iNOS, TNF-α = experiment: qRT-PCR of markers for pro- vs. anti-inflammatory macrophages in spinal cord segments caudal to injury; assay type: in vivo, rat; conditions: vs scrambled peptide
# Description: Rats were treated once per day beginning one day after SCI with SRP or scrambled peptide (scr) and mRNA was then harvested and analyzed by qRT-PCR. […] C.
# spinal cord injury (SCI) [1] = experiment: Urodynamic analyses (CMG, EUS EMG) after T8 contusive SCI, SRP treatment; assay type: in vivo, rat; conditions: 3 months post-SCI
# Description: (§1) In this Example, the SRP has been applied in a preclinical rat model to test the efficacy of the treatment of spinal cord injury (SCI) in a manner similar to Example 1 above for CRP.
# Animals were treated daily with SRP for one month, beginning one day after SCI. Urodynamic analyses were conducted 3 months post-SCI. […] EUS EMG recording were conducted 3 months post-SCI.
# STAT3 = STAT3 activation (phospho-STAT3 Tyr705) in spinal cord after SCI, SRP treatment; assay type: in vivo, rat; conditions: 7 days after SCI; once per day beginning one day after SCI
# Text: (§2) Graphs represent mean±SEM of five samples per group for the ratios of SOCS3 to actin (B) and p-STAT3 to STAT3 (C). +p<0.05, ++p<0.01, and +++p<0.001 compared to normal animals, and *p<0.05 and ***p<0.001 compared to scrambled peptide animals (two way ANOVA with Bonferroni multiple analyses).
# [2] = tested on: TBK1 and mitophagy adaptors; experiment: TBK1 and mitophagy adaptors in spinal cord after SCI, SRP treatment; assay type: in vivo, rat; conditions: vs scrambled peptide
# Text: (A). Graphs represented mean±SEM of six samples per group for the % to GAPDH (B). *p<0.05, **p<0.01 and ***p<0.001 compared to scrambled peptide animals (two-tailed t test, n=3 per group).
# [3] = tested on: ED1+macrophages/microglia; experiment: Double immunolabeling of ED1 and GFAP in spinal cord after SCI, SRP treatment; assay type: in vivo, rat; conditions: three months post-SCI, vs scrambled peptide
# Description: SRP treatment beginning one day after SCI was administered for 30 consecutive days and then spinal cords were harvested three months post-SCI for double immunolabeling of ED1 and GFAP.
# SOCS1 = target: T1, SOCS1 (Rattus norvegicus, UniProt Q9QX78); experiment: SOCS1 protein level in spinal cord after SCI, SRP treatment; assay type: in vivo; conditions: 7 days after SCI; once per day beginning one day after SCI
# T1 construct: from tissue; host or cells: rat spinal cord
# T1 sequence (Q9QX78 1-212): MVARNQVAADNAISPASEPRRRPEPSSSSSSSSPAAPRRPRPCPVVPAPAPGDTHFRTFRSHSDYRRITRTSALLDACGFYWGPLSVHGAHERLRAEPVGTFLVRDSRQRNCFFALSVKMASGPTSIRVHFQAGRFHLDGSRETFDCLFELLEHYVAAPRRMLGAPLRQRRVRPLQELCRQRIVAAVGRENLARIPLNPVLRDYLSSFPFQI
# SOCS3 [4] = target: T2, SOCS3 (Rattus norvegicus, UniProt O88583); experiment: SOCS3 protein level in spinal cord after SCI, SRP treatment; assay type: in vivo; set-up: from tissue; host or cells: rat spinal cord (epicenter and caudal segments); conditions: 7 days after SCI; once per day beginning one day after SCI; vs scrambled peptide
# T2 sequence (O88583 1-225): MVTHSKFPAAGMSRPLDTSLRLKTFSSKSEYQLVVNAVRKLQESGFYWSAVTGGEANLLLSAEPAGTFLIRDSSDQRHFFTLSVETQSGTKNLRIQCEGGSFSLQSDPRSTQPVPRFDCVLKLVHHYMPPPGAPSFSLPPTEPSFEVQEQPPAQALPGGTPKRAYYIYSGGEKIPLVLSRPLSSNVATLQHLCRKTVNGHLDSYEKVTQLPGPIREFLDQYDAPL
# Text: as §1, §2
# spinal cord injury (SCI) [5] = experiment: BBB open field locomotion test after T8 contusive SCI, SRP treatment; assay type: in vivo, rat; conditions: subcutaneous daily for one month beginning one day after SCI; vs scrambled peptide; entire observation period
# Text: as §1
# Animals were subcutaneously injected with SRP daily for one month beginning one day after SCI and assessed by the BBB open field locomotion test to evaluate hind limb motor function at the designated time points. […] Values represent mean±SEM.
# SOCS3 [6] = target: T2, SOCS3; experiment: SOCS3 level in sciatic nerve after sciatic nerve transection, SRP treatment; assay type: in vivo; set-up: from tissue; host or cells: sciatic nerve; conditions: once per day for 4 consecutive days beginning immediately after transection; vs scrambled peptide
# spinal cord injury (SCI) [7] = experiment: Locomotion (BBB 21-point score) and gait after chronic SCI, treatment from two months after SCI; assay type: in vivo, rat
# Text: Basso, Beattie, and Bresnahan (BBB) 21-point scoring test is used as the locomotion assessment after SCI. SCI causes significant deficits on locomotion function as indicated by the significant drop of BBB scores from 21 of the normal rats. […] However, ISP treatment slightly decreases BBB scores from 11.667±0.211 (two months after SCI) to 11.00±0.577 (two months plus 42 days after SCI) (A).
# (§3) In this Example, the CRP has been applied in a preclinical rat model to test the efficacy of the treatment of spinal cord injury (SCI). The injury was made at thoracic 8 level using contusive injury device. The contusive SCI is the most clinical relevance among all experimental SCI models. We have assessed both motor and bladder control as functional outcomes and analyzed anatomical evidences to support these findings. We also selected sub-acute phase (ONE-DAY after SCI) and chronic phase (TWO-MONTHs after SCI) to start our treatment.
# The above were followed up with studies to evaluate the treatment effects of CRP in chronic SCI. The chronic SCI is not only way more challenge to be repaired but also is the clinical status of the majority of patients with SCI.
# [8] = tested on: chondroitin sulfate proteoglycan (CSPG); experiment: CSPG expression around the spinal cord lesion after contusive SCI, treatment from one day after SCI; assay type: in vivo, rat; conditions: two weeks after contusive SCI; treatment starting one day after SCI; vs vehicle
# Text: as §3
# Furthermore CRP can efficiently improve locomotion and bladder electromyography (EMG) activities and voiding patterns after SCI.
# spinal cord injury (SCI) [9] = conditions: cited from earlier work
# [10] = once per day beginning one day after SCI
substance,measurement,setting,value
YGRKKRRQRRR-VQpYSTVVHS-KFERQKILDQRFFE [SRP],arginase 1 expression (mRNA),"arginase 1, iNOS, TNF-α; 7 and 14 days post-SCI",increased
same,iNOS expression (mRNA),"arginase 1, iNOS, TNF-α; 7 and 14 days post-SCI",decreased
same,TNF-α expression (mRNA),"arginase 1, iNOS, TNF-α; 7 days post-SCI",decreased
same,bladder hyperactivity (CMG),spinal cord injury (SCI) [1]; daily for one month beginning one day after SCI,significantly reduced bladder hyperactivity
same,EUS EMG bursting activity during the void period,spinal cord injury (SCI) [1]; vs scrambled peptide,improvement in bursting activity
same,non-voiding contraction amplitude,spinal cord injury (SCI) [1]; vs scrambled peptide,significantly reduced
same,number of non-voiding contractions,spinal cord injury (SCI) [1]; vs scrambled peptide,significantly reduced
same,residual volume,spinal cord injury (SCI) [1]; vs scrambled peptide,significantly reduced
same,phospho-STAT3 Tyr705 (p-STAT3 to STAT3),STAT3,significant activation of STAT3
same,TBK1 protein level,[2]; [10],significantly increased
same,optineurin protein level,[2]; [10],significantly increased
same,phospho-TBK1 Ser172 (p-TBK1),[2],significant activation of TBK1 and p62
same,phosphor-p62 Ser403 (p-p62),[2],significant activation of TBK1 and p62
same,SCI-increased ED1+macrophages/microglia,[3]; treatment for 30 consecutive days beginning one day after SCI,blocked SCI-induced upregulation of ED1+macrophages
same,GFAP+tissues surrounding the lesion epicenter,[3],preserved more GFAP+tissues
same,SOCS1 level,SOCS1,not significantly altered
same,SCI-upregulated SOCS3 (ratio of SOCS3 to actin),SOCS3 [4],significantly reduced
same,hind limb locomotion (BBB),spinal cord injury (SCI) [5],significant improvement in hind limb locomotion
same,sciatic nerve transection-upregulated SOCS3,SOCS3 [6],significantly reduced
"intracellular sigma peptide [ISP, reference compound]",BBB score,spinal cord injury (SCI) [7]; two months after SCI (start of treatment),11.667±0.211
same,BBB score,"spinal cord injury (SCI) [7]; two months plus 42 days after SCI, treatment starting two months after contusive SCI",11.00±0.577
same,CSPG in lesion epicenter and adjacent tissue,[8],does not decrease CSPG
same,functional recovery after SCI,spinal cord injury (SCI) [9]; applied immediately after SCI in rats,minor effects on promoting functional recovery
same,effect on chronic SCI,spinal cord injury (SCI) [9]; applied two-month after SCI,no effects on chronic SCI
same,effect on CSPG in vivo,spinal cord injury (SCI) [9]; background statement,no effects on CSPG

# From patent US11981711B2, “Methods of treating spinal cord injury using a chondroitin sulfate proteoglycan (CSPG) reduction peptide (CRP) comprising a cell membrane penetrating domain, a CSPG binding domain, and a lysosome targeting domain” (The Cleveland Clinic Foundation, priority 2017, dated 2024)
